Data on two molecules can be found in US6369299B1 (Regents of the University of Minnesota, priority 1999, dated 2002).

In assay [1] the test system is Medicago sativa cv. Regen SY. In words: atrazine tolerance: rooting and growth of sterile cuttings on sugar-free, hormone-free B5h medium. Format: in vivo. Conditions: untransformed control (SY) plant cuttings, Magenta boxes. An excerpt: Under these conditions plant growth depends on photosynthesis for production of energy and carbon.
Assay [2] concerns quinone-binding (QB) protein. The settings on record: altered QB protein of atrazine resistant weeds; cited from earlier work.
A further assay deals with plants. The settings on record: cited from earlier work.

SMILES strings stand for the structures. A value given as a limit tells only on which side of the number the result lay.

As to `CCNc1nc(Cl)nc(NC(C)C)n1` [atrazine, 2-chloro-4-ethylamino-6-isopropylamino-1,3,5-s-triazine], in assay [1], the “atrazine concentration at which cuttings did not root or grow” value is ≥ 500 nM. The “reduced affinity of altered QB protein for atrazine” value in assay [2] is reported as 1000 fold.
As for `CCNc1nc(NC(C)C)[nH]c(=O)n1` [hydroxyatrazine], the herbicidal activity entry in the assay on plants is listed as “no herbicidal activity”.
